Laboratory results: BindingDB's records for doi:10.1016/j.ejmech.2018.11.015 (Fudan University, 2019)
pEC50: −log10 of the molar value.

Test: Inhibition of PB2 in Influenza A virus (A/Weiss/1943(H1N1)) infected in MDCK cells assessed as reduction in virus induced cell death after 5 days by CCK-8 assay

Compound | pEC50
O=C(O)[C@H]1C2CCC(CC2)[C@@H]1Nc1nc(-c2c[nH]c3ncc(F)cc23)nc2c1CSC2 | 8.59
Cn1cc(F)c2c(N[C@H]3C4CCC(CC4)[C@@H]3C(=O)O)nc(-c3c[nH]c4ncc(F)cc34)nc21 | 8.02
O=C(O)[C@H]1C2CCC(CC2)[C@@H]1Nc1nc(-c2c[nH]c3ncc(F)cc23)nc2c1CCCC2 | 7.92
O=C(O)[C@H]1C2CCC(CC2)[C@@H]1Nc1nc(-c2c[nH]c3ncc(F)cc23)nc2c1CCC2 | 8.26
O=C(O)[C@H]1C2CCC(CC2)[C@@H]1Nc1nc(-c2c[nH]c3ncc(F)cc23)nc2cccnc12 | 7.85
O=C(O)[C@H]1C2CCC(CC2)[C@@H]1Nc1nc(-c2c[nH]c3ncc(F)cc23)nc2cccc(F)c12 | 7.70
O=C(O)[C@H]1C2CCC(CC2)[C@@H]1Nc1nc(-c2n[nH]c3ncc(F)cc23)nc2c1SCC2 | 9.70
O=C(O)[C@H]1C2CCC(CC2)[C@@H]1Nc1nc(-c2c[nH]c3ccc(F)cc23)ncc1F | 6.66
O=C(O)[C@H]1C2CCC(CC2)[C@@H]1Nc1nc(-c2c[nH]c3ncc(F)cc23)nc2ccsc12 | 9.30
O=C(O)[C@H]1C2CCC(CC2)[C@@H]1Nc1nc(-c2c[nH]c3ncc(F)cc23)nc2scnc12 | 8.52
O=C(O)[C@H]1C2CCC(CC2)[C@@H]1Nc1nc(-c2c[nH]c3ncc(F)cc23)nc2cc(C(F)F)sc12 | 8.00
O=C(O)[C@H]1C2CCC(CC2)[C@@H]1Nc1nc(-c2c[nH]c3ncc(F)cc23)nc2c1SCC2 | 9.40
O=C(O)[C@H]1C2CCC(CC2)[C@@H]1Nc1nc(-n2ccc3ncc(F)cc32)ncc1F | 6.64
N#Cc1csc2c(N[C@H]3C4CCC(CC4)[C@@H]3C(=O)O)nc(-c3c[nH]c4ncc(F)cc34)nc12 | 8.40
O=C(O)[C@H]1C2CCC(CC2)[C@@H]1n1ccc2cnc(-c3c[nH]c4ncc(F)cc34)nc21 | 7.92
Cc1cccc2nc(N[C@H]3C4CCC(CC4)[C@@H]3C(=O)O)nc(-c3c[nH]c4ncc(F)cc34)c12 | 6.35
O=C(O)[C@H]1C2CCC(CC2)[C@@H]1Nc1nc(-c2c[nH]c3ncc(F)cc23)nc2cc(F)cnc12 | 8.00

Compound | pEC50
O=C(O)[C@H]1C2CCC(CC2)[C@@H]1Nc1nc(-c2n[nH]c3ncc(F)cc23)nc2ccsc12 | 9.30
O=C(O)[C@H]1C2CCC(CC2)[C@@H]1n1cnc2cnc(-c3c[nH]c4ncc(F)cc34)nc21 | 6.72
O=C(O)[C@H]1C2CCC(CC2)[C@@H]1Nc1nc(-c2c[nH]c3ncc(F)cc23)nc2[nH]ccc12 | 8.35
O=C(O)[C@H]1C2CCC(CC2)[C@@H]1Nc1nc(-c2c[nH]c3ncc(F)cc23)nc2ccoc12 | 8.28
Cc1cccc2nc(-c3c[nH]c4ncc(F)cc34)nc(N[C@H]3C4CCC(CC4)[C@@H]3C(=O)O)c12 | 7.96
O=C(O)[C@H]1C2CCC(CC2)[C@@H]1Nc1nc(-c2c[nH]c3ncc(F)cc23)nc2c1CCS2 | 8.55
O=C(O)[C@H]1C2CCC(CC2)[C@@H]1Nc1nc(-c2c[nH]c3ncc(F)cc23)nc2sccc12 | 9.70
O=C(O)[C@H]1C2CCC(CC2)[C@@H]1Nc1nc(-c2n[nH]c3ncc(F)cc23)nc2sccc12 | 10.22
O=C(O)[C@H]1C2CCC(CC2)[C@@H]1Nc1nc(-c2c[nH]c3ncc(F)cc23)nc2c1CS(=O)(=O)C2 | 5.70
O=C(O)[C@H]1C2CCC(CC2)[C@@H]1Nc1nc(-c2c[nH]c3ncc(F)cc23)nc2c1S(=O)(=O)CC2 | 6.96
O=C(O)[C@H]1C2CCC(CC2)[C@@H]1N1CCOc2cnc(-c3c[nH]c4ncc(F)cc34)nc21 | 7.62
O=C(O)[C@H]1C2CCC(CC2)[C@@H]1Nc1nc(-c2c[nH]c3ncc(F)cc23)nc2cscc12 | 8.85
Cc1cnc2c(N[C@H]3C4CCC(CC4)[C@@H]3C(=O)O)nc(-c3c[nH]c4ncc(F)cc34)nc2c1 | 7.96
O=C(O)[C@H]1C2CCC(CC2)[C@@H]1Nc1nc(-c2c[nH]c3ncc(F)cc23)ncc1F | 9.22
N#Cc1cn([C@H]2C3CCC(CC3)[C@@H]2C(=O)O)c2nc(-c3c[nH]c4ncc(F)cc34)ncc12 | 7.15
O=C(O)[C@H]1C2CCC(CC2)[C@@H]1Nc1nc(-c2c[nH]c3ncc(F)cc23)nc2nccnc12 | 7.89
